{
  "source": "patent US20090197930A1",
  "about": "“Eyedrops” (priority 2006, published 2009)",
  "conditions": "administered at high concentration",
  "data": [
    {"molecule": "O=C1CN(/N=C/c2ccc(-c3ccc([N+](=O)[O-])cc3)o2)C(=O)[N-]1.[Na+]", "note": "[dantrolene, Dantrolene sodium]", "values": [
      {"measurement": "miosis", "result": "strong miosis"},
      {"measurement": "myopic inclination", "result": "myopic inclination is stronger"},
      {"measurement": "pupillary reaction", "result": "pupillary reaction becomes dull"}
    ]}
  ]
}
